Where “and” joins values, the source holds several entries; their conditions need not be identical. Equal values may be shown once.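 Following 48 hours of exposure in 96-well plates, responses at five concentrations were used to interpolate endpoints linearly. GI50: concentration for 50% inhibition of growth. TGI: total growth inhibition.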
How the values were obtained:
Assay in all cases: growth of human tumour cells (NCI), 48 h
OVCAR-5 ovarian = test system: OVCAR-5 ovarian
SK-MEL-2 melanoma = test system: SK-MEL-2 melanoma
NCI/ADR-RES ovarian = test system: NCI/ADR-RES ovarian
MDA-MB-435 = test system: MDA-MB-435
PC-3 prostate = test system: PC-3 prostate
ACHN renal = test system: ACHN renal
HOP-92 NSCLC = test system: HOP-92 NSCLC
SF-295 CNS = test system: SF-295 CNS
RXF 393 renal = test system: RXF 393 renal
CAKI-1 renal = test system: CAKI-1 renal

**Q.** What does the source list for `Cn1cnc2c(F)c(Nc3ccc(Br)cc3F)c(C(=O)NOCCO)cc21`?
**A.** GI50 (OVCAR-5 ovarian): 28.6 nM and 22 nM; TGI (OVCAR-5 ovarian): > 48400 nM; GI50 (SK-MEL-2 melanoma): 29.6 nM and 11.3 nM; TGI (SK-MEL-2 melanoma): 448 nM and 76.6 nM; GI50 (NCI/ADR-RES ovarian): > 100000 nM; TGI (NCI/ADR-RES ovarian): > 100000 nM; GI50 (MDA-MB-435): 60.9 nM and 54.7 nM; TGI (MDA-MB-435): > 100000 nM; GI50 (PC-3 prostate): > 100000 nM; TGI (PC-3 prostate): > 100000 nM; GI50 (ACHN renal): 10500 nM; TGI (ACHN renal): > 100000 nM; GI50 (HOP-92 NSCLC): 60.6 nM and 110 nM; TGI (HOP-92 NSCLC): 1900 nM and 2010 nM; GI50 (SF-295 CNS): > 67700 nM; TGI (SF-295 CNS): > 100000 nM; GI50 (RXF 393 renal): 455 nM and 4390 nM; TGI (RXF 393 renal): > 96200 nM; GI50 (CAKI-1 renal): 5940 nM; TGI (CAKI-1 renal): > 100000 nM

**Q.** With `COC(=O)[C@]12CC[C@@H](C)[C@H](C)[C@@H]1C1=CC[C@@H]3[C@@]4(C)C(C=O)=C[C@@](C)(COS(C)(=O)=O)C4[C@H](O)C[C@@]3(C)[C@]1(C)CC2` (stereo not given in full) as the molecule, how does the GI50 (OVCAR-5 ovarian) read?
**A.** 1960 nM

**Q.** And the TGI (OVCAR-5 ovarian)?
**A.** 6500 nM

**Q.** And the GI50 (SK-MEL-2 melanoma)?
**A.** 2060 nM

**Q.** What about the TGI (SK-MEL-2 melanoma) of the same molecule?
**A.** 5030 nM

**Q.** What about the GI50 (NCI/ADR-RES ovarian) of the same molecule?
**A.** 2030 nM

**Q.** And the TGI (NCI/ADR-RES ovarian)?
**A.** 5300 nM

**Q.** What about the GI50 (MDA-MB-435) of the same molecule?
**A.** 1670 nM

**Q.** And the TGI (MDA-MB-435)?
**A.** 3570 nM

**Q.** What about the GI50 (PC-3 prostate) of the same molecule?
**A.** 1390 nM

**Q.** And the TGI (PC-3 prostate)?
**A.** 6480 nM

**Q.** And the GI50 (ACHN renal)?
**A.** 1180 nM

**Q.** What about the TGI (ACHN renal) of the same molecule?
**A.** 2560 nM

**Q.** What about the GI50 (HOP-92 NSCLC) of the same molecule?
**A.** 2390 nM

**Q.** And the TGI (HOP-92 NSCLC)?
**A.** 5560 nM

**Q.** And the GI50 (SF-295 CNS)?
**A.** 1310 nM

**Q.** What about the TGI (SF-295 CNS) of the same molecule?
**A.** 2770 nM

**Q.** What about the GI50 (RXF 393 renal) of the same molecule?
**A.** 1530 nM

**Q.** And the TGI (RXF 393 renal)?
**A.** 2900 nM

**Q.** And the GI50 (CAKI-1 renal)?
**A.** 2050 nM

**Q.** What about the TGI (CAKI-1 renal) of the same molecule?
**A.** 5580 nM

**Q.** Which results are given for `Cc1ccc2nc(-c3ccc(N)c4ccccc34)[nH]c2c1`?
**A.** GI50 (OVCAR-5 ovarian): 326 nM; TGI (OVCAR-5 ovarian): > 73300 nM; GI50 (SK-MEL-2 melanoma): 209 nM; TGI (SK-MEL-2 melanoma): 24900 nM; GI50 (NCI/ADR-RES ovarian): 83.5 nM; TGI (NCI/ADR-RES ovarian): 3530 nM; GI50 (MDA-MB-435): 187 nM; TGI (MDA-MB-435): 444 nM; GI50 (PC-3 prostate): 70.6 nM; TGI (PC-3 prostate): 22000 nM; GI50 (ACHN renal): 987 nM; TGI (ACHN renal): 37100 nM; GI50 (HOP-92 NSCLC): 2620 nM; TGI (HOP-92 NSCLC): 49100 nM; GI50 (SF-295 CNS): 716 nM; TGI (SF-295 CNS): 9530 nM; GI50 (RXF 393 renal): 265 nM; TGI (RXF 393 renal): 14700 nM; GI50 (CAKI-1 renal): 405 nM; TGI (CAKI-1 renal): 5620 nM

**Q.** How did the TGI (OVCAR-5 ovarian) turn out when `OCC(CCc1c[nH]c2ccccc12)c1c[nH]c2ccccc12` (stereo not given) was run?
**A.** 33200 nM

**Q.** What about the TGI (SK-MEL-2 melanoma) of the same molecule?
**A.** 31300 nM

**Q.** And the TGI (NCI/ADR-RES ovarian)?
**A.** 44100 nM

**Q.** What about the TGI (MDA-MB-435) of the same molecule?
**A.** 34300 nM

**Q.** What about the TGI (PC-3 prostate) of the same molecule?
**A.** 32300 nM

**Q.** What about the TGI (ACHN renal) of the same molecule?
**A.** 45100 nM

**Q.** What about the TGI (HOP-92 NSCLC) of the same molecule?
**A.** 32700 nM

**Q.** And the TGI (SF-295 CNS)?
**A.** 42900 nM

**Q.** And the TGI (RXF 393 renal)?
**A.** 30800 nM

**Q.** And the TGI (CAKI-1 renal)?
**A.** 77400 nM

**Q.** What does the source list for `COc1ccc(-c2cc(-c3cccc(NS(C)(=O)=O)c3)nc(N)c2C#N)cc1`?
**A.** GI50 (OVCAR-5 ovarian): 416 nM; TGI (OVCAR-5 ovarian): > 64600 nM; GI50 (SK-MEL-2 melanoma): 119 nM; TGI (SK-MEL-2 melanoma): 14600 nM; GI50 (NCI/ADR-RES ovarian): 60.3 nM; TGI (NCI/ADR-RES ovarian): 1100 nM; GI50 (MDA-MB-435): 25.6 nM; TGI (MDA-MB-435): 121 nM; GI50 (PC-3 prostate): 97.1 nM; TGI (PC-3 prostate): 14200 nM; GI50 (ACHN renal): 78.9 nM; TGI (ACHN renal): 43900 nM; GI50 (HOP-92 NSCLC): 3380 nM; TGI (HOP-92 NSCLC): 48700 nM; GI50 (SF-295 CNS): 49.7 nM; TGI (SF-295 CNS): 2870 nM; GI50 (RXF 393 renal): 50.6 nM; TGI (RXF 393 renal): 440 nM; GI50 (CAKI-1 renal): 76.6 nM; TGI (CAKI-1 renal): > 34400 nM

**Q.** For `C=C(CNC(=O)c1ccccc1)c1ccc(C(=O)Nc2ccccc2N)cc1`, which GI50 (OVCAR-5 ovarian) is on record?
**A.** 2220 nM

**Q.** And the TGI (OVCAR-5 ovarian)?
**A.** > 100000 nM

**Q.** And the GI50 (SK-MEL-2 melanoma)?
**A.** 5200 nM

**Q.** What about the TGI (SK-MEL-2 melanoma) of the same molecule?
**A.** > 100000 nM

**Q.** What about the GI50 (NCI/ADR-RES ovarian) of the same molecule?
**A.** 2350 nM

**Q.** What about the TGI (NCI/ADR-RES ovarian) of the same molecule?
**A.** > 100000 nM

**Q.** What about the GI50 (MDA-MB-435) of the same molecule?
**A.** 6880 nM

**Q.** And the TGI (MDA-MB-435)?
**A.** > 100000 nM

**Q.** What about the GI50 (PC-3 prostate) of the same molecule?
**A.** 2950 nM

**Q.** What about the TGI (PC-3 prostate) of the same molecule?
**A.** > 100000 nM

**Q.** And the GI50 (ACHN renal)?
**A.** 3860 nM

**Q.** What about the TGI (ACHN renal) of the same molecule?
**A.** > 100000 nM

**Q.** What about the GI50 (HOP-92 NSCLC) of the same molecule?
**A.** 1150 nM

**Q.** And the TGI (HOP-92 NSCLC)?
**A.** > 100000 nM

**Q.** What about the GI50 (SF-295 CNS) of the same molecule?
**A.** 12500 nM

**Q.** And the TGI (SF-295 CNS)?
**A.** > 100000 nM

**Q.** What about the GI50 (RXF 393 renal) of the same molecule?
**A.** 3080 nM

**Q.** And the TGI (RXF 393 renal)?
**A.** > 100000 nM

**Q.** What about the GI50 (CAKI-1 renal) of the same molecule?
**A.** 4090 nM

**Q.** What about the TGI (CAKI-1 renal) of the same molecule?
**A.** 45400 nM

From PubChem BioAssay (NCI)
